PubChem BioAssay AID2060606 (Molecular Pharmacology Branch, DTP, NCI, 2025)
pIC50: −log10 of the molar value.

System: 922993-354-T-J3-PDC complex spheroids, viability, % test/control
Assay: Anticancer human tumor 922993-354-T-J3-PDC patient-derived endometrial carcinoma cell line growth inhibition [CLK]
Settings: for pIC50: curve of first compound; for viability, T/C: stronger effect = lower value; active = viability on the fitted dose curve at most 10% of control; inactive = the rest
Summary of the method: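 Multi-cell-type spheroids combined patient-derived tumor cells with HUVEC endothelial cells and human mesenchymal stem cells. Paired agents were dosed in half-log steps down from about clinical Cmax, or from 10 microM where Cmax was unknown.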

[1] = second compound 0.0316 µM, first compound 0.0316 µM
[2] = second compound 0.0316 µM, first compound 0.1 µM
[3] = second compound 0.0316 µM, first compound 0.316 µM
[4] = second compound 0.0316 µM, first compound 1 µM
[5] = second compound 0.0316 µM, first compound 3.16 µM
[6] = second compound 0.0316 µM, first compound 10 µM
[7] = second compound 0.1 µM, first compound 0.0316 µM
[8] = second compound 0.1 µM, first compound 0.1 µM
[9] = second compound 0.1 µM, first compound 0.316 µM
[10] = second compound 0.1 µM, first compound 1 µM
[11] = second compound 0.1 µM, first compound 3.16 µM
[12] = second compound 0.1 µM, first compound 10 µM
[13] = second compound 0.316 µM, first compound 0.0316 µM
[14] = second compound 0.316 µM, first compound 0.1 µM
[15] = second compound 0.316 µM, first compound 0.316 µM
[16] = second compound 0.316 µM, first compound 1 µM
[17] = second compound 0.316 µM, first compound 3.16 µM
[18] = second compound 0.316 µM, first compound 10 µM
[19] = second compound 1 µM, first compound 0.0316 µM
[20] = second compound 1 µM, first compound 0.1 µM
[21] = second compound 1 µM, first compound 0.316 µM
[22] = second compound 1 µM, first compound 1 µM
[23] = second compound 1 µM, first compound 3.16 µM
[24] = second compound 1 µM, first compound 10 µM
[25] = second compound 3.16 µM, first compound 0.0316 µM
[26] = second compound 3.16 µM, first compound 0.1 µM
[27] = second compound 3.16 µM, first compound 0.316 µM
[28] = second compound 3.16 µM, first compound 1 µM
[29] = second compound 3.16 µM, first compound 3.16 µM
[30] = second compound 3.16 µM, first compound 10 µM
[31] = second compound 10 µM, first compound 0.0316 µM
[32] = second compound 10 µM, first compound 0.1 µM
[33] = second compound 10 µM, first compound 0.316 µM
[34] = second compound 10 µM, first compound 1 µM
[35] = second compound 10 µM, first compound 3.16 µM
[36] = second compound 10 µM, first compound 10 µM
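Also: spheroids exposed to the agents for 7 days before readout.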

C#Cc1c(F)ccc2cc(O)cc(-c3ncc4c(N5CC6CCC(C5)N6)nc(OCC56CCCN5CC(F)C6)nc4c3F)c12 (stereo not given) + CNC(=O)c1ccc(Nc2nc(OC3CCCC3)c3c(-c4ccc5nc(C)oc5c4)c[nH]c3n2)c(OC)c1
< 5.00: pIC50 (second compound 0.0316 µM) | pIC50 (second compound 0.1 µM) | pIC50 (second compound 0.316 µM)
inactive: viability, T/C [1] 115% | viability, T/C [2] 98.5% | viability, T/C [3] 103% | viability, T/C [4] 101% | viability, T/C [5] 115% | viability, T/C [6] 94.1% | viability, T/C [7] 94.9% | viability, T/C [8] 95.2% | viability, T/C [9] 116% | viability, T/C [10] 107% | viability, T/C [11] 109% | viability, T/C [12] 97.5% | viability, T/C [13] 61.4% | viability, T/C [14] 64.5% | viability, T/C [15] 63% | viability, T/C [16] 61.8% | viability, T/C [17] 57.1% | viability, T/C [18] 45.6% | viability, T/C [19] 39.5% | viability, T/C [20] 40.6% | viability, T/C [21] 35.5% | viability, T/C [22] 37% | viability, T/C [23] 40.8% | viability, T/C [24] 35.8% | viability, T/C [25] 29.7% | viability, T/C [26] 29.4% | viability, T/C [27] 29.8% | viability, T/C [28] 30.4% | viability, T/C [29] 34.3% | viability, T/C [30] 36.2% | viability, T/C [31] 30.9% | viability, T/C [32] 29.4% | viability, T/C [33] 30.5% | viability, T/C [34] 33.2% | viability, T/C [35] 33.1% | viability, T/C [36] 31.5%
> 7.50: pIC50 (second compound 1 µM) | pIC50 (second compound 3.16 µM) | pIC50 (second compound 10 µM)

C=C(F)C(=O)N1CCN(c2nc(OCC3CCCN3C)nc3c2CCN(c2cccc4cccc(Cl)c24)C3)CC1CC#N (stereo not given) + CNC(=O)c1ccc(Nc2nc(OC3CCCC3)c3c(-c4ccc5nc(C)oc5c4)c[nH]c3n2)c(OC)c1
inactive: viability, T/C [1] 109% | viability, T/C [2] 99.7% | viability, T/C [3] 97.5% | viability, T/C [4] 105% | viability, T/C [5] 94.8% | viability, T/C [7] 89.8% | viability, T/C [8] 104% | viability, T/C [9] 90.7% | viability, T/C [10] 91.9% | viability, T/C [11] 103% | viability, T/C [13] 61.1% | viability, T/C [14] 50.1% | viability, T/C [15] 58.1% | viability, T/C [16] 44% | viability, T/C [17] 57.4% | viability, T/C [19] 36.6% | viability, T/C [20] 36.2% | viability, T/C [21] 32.7% | viability, T/C [22] 38.5% | viability, T/C [23] 47% | viability, T/C [25] 28.3% | viability, T/C [26] 32% | viability, T/C [27] 29.9% | viability, T/C [28] 31.3% | viability, T/C [29] 36.6% | viability, T/C [30] 4.89% | viability, T/C [31] 29% | viability, T/C [32] 33.1% | viability, T/C [33] 30.9% | viability, T/C [34] 29.8% | viability, T/C [35] 38% | viability, T/C [36] 5.43%
> 7.50: pIC50 (second compound 1 µM) | pIC50 (second compound 3.16 µM) | pIC50 (second compound 10 µM)
5.25: pIC50 (second compound 0.0316 µM) | pIC50 (second compound 0.1 µM)
5.46: pIC50 (second compound 0.316 µM)
active: viability, T/C [6] 6.03% | viability, T/C [12] 4.38% | viability, T/C [18] 3.61% | viability, T/C [24] 0.95%

C=CC(=O)N1CCN(c2nc(=O)n(-c3c(C)ccnc3C(C)C)c3nc(-c4c(O)cccc4F)c(F)cc23)C(C)C1 (stereo not given) + CNC(=O)c1ccc(Nc2nc(OC3CCCC3)c3c(-c4ccc5nc(C)oc5c4)c[nH]c3n2)c(OC)c1
> 7.50: pIC50 (second compound 1 µM) | pIC50 (second compound 3.16 µM) | pIC50 (second compound 10 µM)
inactive: viability, T/C [1] 106% | viability, T/C [2] 105% | viability, T/C [3] 102% | viability, T/C [4] 103% | viability, T/C [5] 106% | viability, T/C [6] 78.6% | viability, T/C [7] 86.2% | viability, T/C [8] 104% | viability, T/C [9] 101% | viability, T/C [10] 103% | viability, T/C [11] 103% | viability, T/C [12] 94.5% | viability, T/C [13] 66.9% | viability, T/C [14] 69% | viability, T/C [15] 64% | viability, T/C [16] 61.1% | viability, T/C [17] 69.3% | viability, T/C [18] 47.5% | viability, T/C [19] 33.8% | viability, T/C [20] 32.8% | viability, T/C [21] 34.6% | viability, T/C [22] 36.2% | viability, T/C [23] 41.4% | viability, T/C [24] 44.8% | viability, T/C [25] 34.3% | viability, T/C [26] 31.2% | viability, T/C [27] 30.6% | viability, T/C [28] 33.3% | viability, T/C [29] 36.4% | viability, T/C [30] 38.1% | viability, T/C [31] 27.6% | viability, T/C [32] 28.6% | viability, T/C [33] 31.9% | viability, T/C [34] 33% | viability, T/C [35] 34.1% | viability, T/C [36] 37.3%
< 5.00: pIC50 (second compound 0.0316 µM) | pIC50 (second compound 0.1 µM) | pIC50 (second compound 0.316 µM)

CC(CO)NC(=O)c1cc(-c2ccc(Cl)cc2)nn(-c2cnn(C)c2)c1=O (stereo not given) + CNC(=O)c1ccc(Nc2nc(OC3CCCC3)c3c(-c4ccc5nc(C)oc5c4)c[nH]c3n2)c(OC)c1
> 7.50: pIC50 (second compound 1 µM) | pIC50 (second compound 3.16 µM) | pIC50 (second compound 10 µM)
inactive: viability, T/C [1] 108% | viability, T/C [2] 100% | viability, T/C [3] 101% | viability, T/C [4] 101% | viability, T/C [5] 102% | viability, T/C [6] 98.6% | viability, T/C [7] 113% | viability, T/C [8] 102% | viability, T/C [9] 91.3% | viability, T/C [10] 103% | viability, T/C [11] 118% | viability, T/C [12] 75.4% | viability, T/C [13] 59% | viability, T/C [14] 57.4% | viability, T/C [15] 56.9% | viability, T/C [16] 48% | viability, T/C [17] 59.3% | viability, T/C [18] 57.8% | viability, T/C [19] 38.9% | viability, T/C [20] 34% | viability, T/C [21] 33.5% | viability, T/C [22] 39.9% | viability, T/C [23] 47.7% | viability, T/C [24] 34.3% | viability, T/C [25] 30.5% | viability, T/C [26] 31% | viability, T/C [27] 30% | viability, T/C [28] 30.9% | viability, T/C [29] 37.9% | viability, T/C [30] 36% | viability, T/C [31] 34.2% | viability, T/C [32] 30.3% | viability, T/C [33] 29.9% | viability, T/C [34] 26.9% | viability, T/C [35] 32.5% | viability, T/C [36] 30.7%
< 5.00: pIC50 (second compound 0.0316 µM) | pIC50 (second compound 0.1 µM) | pIC50 (second compound 0.316 µM)

COc1c(OCCCN2CCOCC2)ccc2c3n(c(=NC(=O)c4cnc(N)nc4)nc12)CCN3 + CNC(=O)c1ccc(Nc2nc(OC3CCCC3)c3c(-c4ccc5nc(C)oc5c4)c[nH]c3n2)c(OC)c1
6.77: pIC50 (second compound 0.316 µM)
inactive: viability, T/C (second compound 0.0316 µM, first compound 0.00316 µM) 92.2% | viability, T/C (second compound 0.0316 µM, first compound 0.01 µM) 88.6% | viability, T/C [1] 83.5% | viability, T/C [2] 72.2% | viability, T/C [3] 38.9% | viability, T/C [4] 14.8% | viability, T/C (second compound 0.1 µM, first compound 0.00316 µM) 123% | viability, T/C (second compound 0.1 µM, first compound 0.01 µM) 100% | viability, T/C [7] 108% | viability, T/C [8] 78.2% | viability, T/C [9] 40% | viability, T/C [10] 15% | viability, T/C (second compound 0.316 µM, first compound 0.00316 µM) 90.5% | viability, T/C (second compound 0.316 µM, first compound 0.01 µM) 87.9% | viability, T/C [13] 74.4% | viability, T/C [14] 63.5% | viability, T/C [15] 35.6% | viability, T/C [16] 10.8% | viability, T/C (second compound 1 µM, first compound 0.00316 µM) 42.2% | viability, T/C (second compound 1 µM, first compound 0.01 µM) 37% | viability, T/C [19] 27.9% | viability, T/C [20] 20.6% | viability, T/C [21] 10.1% | viability, T/C (second compound 3.16 µM, first compound 0.00316 µM) 32.6% | viability, T/C (second compound 3.16 µM, first compound 0.01 µM) 28.9% | viability, T/C [25] 22.5% | viability, T/C [26] 11.8% | viability, T/C (second compound 10 µM, first compound 0.00316 µM) 31.1% | viability, T/C (second compound 10 µM, first compound 0.01 µM) 25.5% | viability, T/C [31] 20% | viability, T/C [32] 11.7%
> 8.50: pIC50 (second compound 1 µM) | pIC50 (second compound 3.16 µM) | pIC50 (second compound 10 µM)
6.62: pIC50 (second compound 0.1 µM)
6.67: pIC50 (second compound 0.0316 µM)
active: viability, T/C [22] 1.71% | viability, T/C [27] 7.41% | viability, T/C [28] 1.47% | viability, T/C [33] 7.11% | viability, T/C [34] 1.68%
